Key:
[1] = tested on: HBV (genotype D, serotype ayw, Galibert's strain); assay: Quantification of virion associated secreted HBV DNA in supernatant of HBV-infected differentiated HepaRG (dHepaRG) cells by qPCR, % of replication vs DMSO; assay type: cell-based, hepatitis B virus; conditions: 1 μM compound, 7 days treatment, DMSO = 100%; for activity at 1 µM: Hepatitis B virus, HepaRG, 168 h, read-out: dHepaRG HBV % of replication at 1 μM compared to DMSO
Experimental: (§1) From Methods in Lucifora J. et al. (Direct antiviral properties of TLR ligands against HBV replication in immune-competent hepatocytes, Science Scientific Reports, 2018, 8:5390): • 1) HepaRG cells were cultured, as described previously by Gripon P. et al. (Infection of a human hepatoma cell line by hepatitis B virus. Proc Natl Acad Sci USA, 2002, 99, p 15655-15660) on pages 15655 and 15656, in Williams E medium supplemented with 10% fetal calf serum, 50 U penicillin/streptomycin (Gibco-Invitrogen) ml^−1, […] ml^−1 and 5×10^−7 M hydrocortisone hemisuccinate (Roche Diagnostics and Boehringer Mannheim, respectively). The cell cultures were maintained in a 5% CO2 atmosphere at 37° C. During the proliferation phase, culture medium was renewed every 2 days. For differentiation and infection, cells were maintained for 2 weeks in standard medium and then for at least 2 more weeks in medium supplemented with 1.8-2.0% DMSO (Sigma). • 2) Primary Human Hepatocytes (PHH) were freshly prepared from human liver resection as previously described by Lecluyse, E. L. & Alexandre, E. (Isolation and culture of primary hepatocytes from resected human liver tissue. Methods Mol Biol, 2010, 640, p 57-82, https://doi.org/10.1007/978-1-60761-688-7_3) on page 63 paragraph 3. “Methods” from section 3.1. through 3.6.2. page 77. All experimental procedures were conducted in conformity with French laws and regulations and were approved by the National Ethics Committee. • 3) Cell viability was measured by both neutral red and MTS (CellTiter 96 Aqueous One Solution cell proliferation assay; Promega) tests. • 4) HBV inoculum (genotype D, serotype ayw, Galibert's strain referred as NC_003977.2 at NCBI) was prepared from HepAD38 (see Ladner, S. K. et al., Inducible expression of human hepatitis B virus (HBV) in stably transfected hepatoblastoma cells: a novel system for screening potential inhibitors of HBV replication. Antimicrob Agents Chemother, 1997, 41, p 1715-1720) supernatants by polyethylene-glycol-MW-8000 (PEG8000, SIGMA) precipitation (8% final) as previously described by Luangsay, S. et al. (Early inhibition of hepatocyte innate responses by hepatitis B virus. J Hepatol, 2015, 63, p 1314-1322, https://doi.org/10.1016/j.jhep.2015.07.014).
(§2) Viral stocks with titer reaching at least 1×10^10 viral genome equivalent (vge)/mL were tested endotoxin free.
(§3) Differentiated HepaRG (dHepaRG) or PHH were infected by HBV at a multiplicity of infection of 100-200 vge/cell in culture medium containing 4% PEG 8000 (Sigma) for 16 h at 37° C. in 12- or six-well plates. At the end of the incubation period, cells were washed once with medium and then cultured in Williams E medium containing DMSO as indicated. In general infection was left for 7 days before any treatment was started, to allow replication reaching its maximum. • 5) Infected cell treatment with compounds of interest: • 5a: After 7 days of infection with the virus (day 0 to day 7), the dHepaRG cells were treated (3 treatments: day 7, day 10 and day 12) with a […] of the tested compound (diluted with sterile water from a 10 mM stock DMSO solution) or DMSO as reference negative control for 7 more days. • 5b: After 4 days of infection with the virus (day 0 to day 4), the PHH cells were treated (3 treatments: day 4, day 7 and day 9) with a […] of the tested compound (diluted with sterile water from a 10 mM stock DMSO solution) for 7 more days. • 6) Quantification of virion associated secreted HBV DNA in cell culture supernatant:
(§4) At the end of the experiment (7 days treatment) the supernatant of infected and treated cells (either dHepaRG or PHH or others) is collected. It is diluted 1/4 into sterile water (molecular biology quality) then treated for 30 minutes with RNAse (10 unit) and DNAse (10 unit) to remove non encapsidated material. […]

[2] = Cell viability by neutral red and MTS (CellTiter 96 Aqueous One Solution) tests, HepaRG cells; assay type: cell-based, human; conditions: human, differentiated HepaRG (dHepaRG) cells, CellTiter-Glo, read-out: Cytotoxicity (CC50 in μM) in dHepaRG CellTiter-Glo
Experimental: (§5) From Methods in Lucifora J. et al. (Direct antiviral properties of TLR ligands against HBV replication in immune-competent hepatocytes, Science Scientific Reports, 2018, 8:5390): • 1) HepaRG cells were cultured, as described previously by Gripon P. et al. (Infection of a human hepatoma cell line by hepatitis B virus. Proc Natl Acad Sci USA, 2002, 99, p 15655-15660) on pages 15655 and 15656, in Williams E medium supplemented with 10% fetal calf serum, 50 U penicillin/streptomycin (Gibco-Invitrogen) ml^−1, […] ml^−1 and 5×10^−7 M hydrocortisone hemisuccinate (Roche Diagnostics and Boehringer Mannheim, respectively). The cell cultures were maintained in a 5% CO2 atmosphere at 37° C. During the proliferation phase, culture medium was renewed every 2 days. For differentiation and infection, cells were maintained for 2 weeks in standard medium and then for at least 2 more weeks in medium supplemented with 1.8-2.0% DMSO (Sigma). • 2) Primary Human Hepatocytes (PHH) were freshly prepared from human liver resection as previously described by Lecluyse, E. L. & Alexandre, E. (Isolation and culture of primary hepatocytes from resected human liver tissue. Methods Mol Biol, 2010, 640, p 57-82, https://doi.org/10.1007/978-1-60761-688-7_3) on page 63 paragraph 3. “Methods” from section 3.1. through 3.6.2. page 77. […] K. et al., Inducible expression of human hepatitis B virus (HBV) in stably transfected hepatoblastoma cells: a novel system for screening potential inhibitors of HBV replication. Antimicrob Agents Chemother, 1997, 41, p 1715-1720) supernatants by polyethylene-glycol-MW-8000 (PEG8000, SIGMA) precipitation (8% final) as previously described by Luangsay, S. et al. (Early inhibition of hepatocyte innate responses by hepatitis B virus. J Hepatol, 2015, 63, p 1314-1322, https://doi.org/10.1016/j.jhep.2015.07.014).

[3] = tested on: HBV (genotype D, serotype ayw, Galibert's strain); assay: Quantification of virion associated secreted HBV DNA in supernatant of HBV-infected Primary Human Hepatocytes (PHH) by qPCR, % of replication vs DMSO; assay type: cell-based, hepatitis B virus; conditions: 1 μM compound, 7 days treatment, DMSO = 100%; for activity at 1 µM: Hepatitis B virus, Hepatocyte, 168 h, (*) n = 1, read-out: PHH HBV % of replication at 1 μM compared to DMSO; for PHH HBV % of replication at 1 μM compared to DMSO: (*) n = 1
Experimental: as §1, §2, §3, §4

[4] = tested on: HepaRG cells; assay: Cell viability by neutral red and MTS (CellTiter 96 Aqueous One Solution) tests, HepaRG cells; assay type: cell-based, human; conditions: dHepaRG cells, CellTiter-Glo; read-out: Cytotoxicity (CC50 in μM) in dHepaRG CellTiter-Glo
Experimental: as §5

Structure (SMILES)	activity at 1 µM [1] [%]	CC50 [2] [µM]	activity at 1 µM [3] [%]	dHepaRG HBV % of replication at 1 μM compared to DMSO [1]	CC50 [4] [µM]	PHH HBV % of replication at 1 μM compared to DMSO [3]
CC(C)OC(=O)CC1COP(=O)(CO[C@H](C)Cn2cnc3c(N)ncnc32)OC1 (stereo partly drawn) [Example 3, (R)-isopropyl 2-(2-(((1-(6-amino-9H-purin-9-yl)propan-2-yl)oxy)methyl)-2-oxo-1,3,2-dioxaphosphinan-5-yl)acetate]	≤ 30	> 50	≤ 30	–	–	–
CC(C)OC(=O)CC1COP(=O)(CO[C@H](C)Cn2cnc3c(N(C(=O)c4ccccc4)C(=O)c4ccccc4)ncnc32)OC1 (stereo partly drawn) [Example 20, (R)-isopropyl 2-(2-(((1-(6-(N-benzoylbenzamido)-9H-purin-9-yl)propan-2-yl)oxy)methyl)-2-oxido-1,3,2-dioxaphosphinan-5-yl)acetate]	≤ 30	> 50	≤ 30	–	–	–
CC(C)OC(=O)CC1COP(=O)(CO[C@H](C)Cn2cnc3c(NC(=O)c4ccccc4)ncnc32)OC1 (stereo partly drawn) [Example 21, (R)-isopropyl 2-(2-(((1-(6-benzamido-9H-purin-9-yl)propan-2-yl)oxy)methyl)-2-oxo-1,3,2-dioxaphosphinan-5-yl)acetate]	≤ 30	> 50	≤ 30	–	–	–
CC(C)OC(=O)[C@H](C)N[P@](=O)(CO[C@H](C)Cn1cnc2c(N)ncnc21)Oc1ccccc1 [TAF]	–	–	–	++++ (++++ ≤ 30%)	< 10	++++ (++++ ≤ 30%)
C[C@H](Cn1cnc2c(N)ncnc21)OCP(=O)(O)O [TFV]	–	–	–	++++ (++++ ≤ 30%)	> 50	++++ (++++ ≤ 30%)

— patent US20260144879A1, “ANTI-VIRAL AND HEPATIC-TARGETED DRUGS” (AI-BIOPHARMA, priority 2019, published 2026)
